Entries after “also recorded” stand apart in the source; their conditions may differ.
Assays:
[1] = Thermal radical initiator screening, DAB decomposition by sonication in BenchMark Reaction Buffer; conditions: for Effect on DAB decomposition with sonication: BenchMark Reaction Buffer; for Sonication time after which no DAB monomer was detectable: DAB 68.1 mg/L in BenchMark Reaction Buffer, initiator approx. 0.0882 mmol per 25 mL
Description: Sonication can form acoustic cavitation in liquids causing the formation, growth and implosive collapse of bubbles and heat generation. Sonication was used to thermally activate thermal radical initiators to induce DAB decomposition. Thermal radical initiator screening experiments were performed using a MisonixSonicator 3000 Ultrasonic Liquid Processor. The sonicator voltage converter and horn were connected to a microtip probe. […] A DAB sample in RTD BenchMark Reaction Buffer (68.1 mg/L) was sonicated with or without the presence of a thermal radical initiator. […] The sonication mixed the sample efficiently.

[2] = Radical initiator screening in DAB UV oxidation (Aquatop 10 W in-line UV sterilizer, BenchMark Reaction Buffer); conditions: for Impact on DAB UV oxidation: 30 min UV exposure, relative to no initiator; for % Loss DAB (30 min UV): DAB 68.1 mg/L in BenchMark Reaction Buffer, initiator approx. 0.882 mmol per 250 mL, 10 W
[3] = DAB UV oxidation in 36 W top-down UV irradiation test bed, Reaction Buffer matrix; format: physicochemical
Description: As shown in FIGS. 9A-9C, a test bed was prepared to investigate top-down UV irradiation systems without direct liquid contact to the UV irradiation source (also referred to as “UV lamp light”). This test bed used two 18 W lamps to irradiate the fluid matrix from above while the liquid meandered through a predetermined path in the metal tray below to control sample exposure time. The UV light sources may be installed adjacently in parallel connection to each other (e.g. UV light array, etc.) to increase the power of the array. Alternatively, the UV light sources may be installed serially to increase exposure time. A second bottom irradiation plastic container was prepared without the pathway. UV light is absorbed as it goes through a liquid medium causing the aqueous layer furthest from the lamp to receive less UV irradiation. This test bed was used to examine liquid layer thickness and waste matrix impurities (i.e. LCS, DAB oxidation products, etc.) impact on DAB UV decomposition rates.
The 36 W top-down UV irradiation test bed without direct sample liquid contact to the UV light source was used to investigate matrix layer thickness tolerance during DAB UV irradiation (FIGS. 9A-9C). UV light is absorbed as it goes through a liquid medium causing the aqueous layer furthest from the lamp to receive less UV irradiation. A DAB sample in Reaction Buffer matrix was prepared at the expected waste concentration with approximately 20% (v/v) LCS. OptiView DAB IHC detection kit DAB chromogen, detection peroxide and inhibitor peroxide reagents were added to BenchMark Reaction Buffer matrix (143 μL each reagent per 250 mL). The 36 W top-down UV irradiation test bed bottom was filled with a specific matrix layer thickness (i.e. 10-, 20- or 30-mm thickness). The DAB sample was treated with UV irradiation without mixing and a sample was removed every 2 minutes to 10 minutes and then every 5 minutes thereafter through 30 minutes. The matrix sample was analyzed by RP UPLC.
The 36 W top-down UV irradiation test bed without direct sample liquid contact to the UV light source was used to investigate how LCS could be tolerated during DAB UV irradiation in a top-down configuration. A DAB sample in Reaction Buffer matrix was prepared at the expected waste concentration with or without approximately 20% (v/v) LCS. OptiView DAB IHC detection kit DAB chromogen, detection peroxide and inhibitor peroxide reagents were added to Reaction Buffer matrix (143 μL each reagent per 250 mL). These Reaction Buffer/LCS mixed matrix was tested with LCS not mixed, mixed by inversion 20× to form an initial bubble LCS emulsion, and vigorously mixed to form an initial opaque LCS emulsion.
The 36 W top-down UV irradiation test bed bottom was filled with a 10 mm volume layer thickness. The DAB sample was treated with UV irradiation without mixing and a sample was removed every 2 minutes to 10 minutes and then every 5 minutes thereafter through 30 minutes. The matrix sample was analyzed by RP UPLC. […] These DAB intermediates remained in solution longer when the opaque white LCS layer was present.

[4] = DAB UV oxidation in in-line UV sterilizers, BenchMark IHC waste matrix; conditions: for UV irradiation time for DAB monomer to decrease to LOD: 55 W
Description: DAB degradation rates were determined using HPLC analysis to monitor DAB concentration change in Milli-Q® deionized (“DDI”) water, BenchMark Reaction Buffer and BenchMark IHC waste matrices. HPLC analyses were performed on a Waters Acquity Ultra Performance Liquid Chromatography (“UPLC”) instrument with photodiode array (“PDA”) detection. Standard reverse phase chromatography was used for UPLC analyses in BenchMark Reaction Buffer and DDI water matrices. Reverse phase HPLC chromatography with ion-pairing was used for DAB analysis in BenchMark waste. DAB samples were analyzed without filtration or dilution.
A SIELC PrimeSep S column 2.1×100 mm (5μ) and 2.1×10 mm guard column HPLC column was used. The eluents were 40% acetonitrile in 50 mM ammonium formate (pH=4.0). The flow rate was 0.2 mL/min, the gradient profile was an isocratic elution, the column temperature was 30° C., and the injection volume was 8 μL. The PDA detection wavelengths were 210 to 499 nm (2.4 nm resolution and 20 pts/sec). The expected retention time (in BenchMark waste) for DAB and 2-HOPyr was 2.56 min and 1.64 min, respectively.
Multiple UV irradiation flow-through systems were used to examine UV promoted DAB oxidation. A commercial in-line UV water sterilizers with preset lamp wattage and UV irradiation chamber geometry, namely, an Aquatop 10 W In-line UV sterilizer (Aquatop p/n: IL10-UV), was used to treat water up to a 211 gallon/hour flow rate. The sterilizer featured an external variable-speed micropump gear pump that controlled fluid flow rates with the assistance of an independent power supply. Samples were irradiated with active mixing, dwell mixing, or no mixing. For in-line UV sterilizers that were used without mixing pumps, inversion mixing was performed to create a uniform sample prior to sampling. Multiple UV sterilizer UV lamp wattages were examined (10, 18 and 55 W). Multiple UV irradiation sources may be installed adjacently with serial connection to each other to increase effluent exposure time.
DAB UV oxidation experiments were performed in the Aquatop 10 W in-line UV sterilizer as above with variable sample matrices (i.e. DDI water versus BenchMark IHC Waste). […] A fresh BenchMark Ultra OptiView DAB with TSA Amp IHC Waste was used for this experiment where the aqueous layer was separated from a majority of the LCS by gravity. The BenchMark IHC Waste still contained some LCS, which was finely dispersed with the BenchMark IHC waste surfactants. Both samples were irradiated by UV light for 75 minutes. The Aquatop in-line sterilizer was inverted (2×) using an air pocket to mix the matrix uniformly prior to sampling. The reaction mixture was analyzed by UPLC every 10 minutes.
DAB UV oxidation experiments were performed within in-line UV water sterilizers with different UV lamp wattages. […] The Aquatop in-line sterilizer was inverted (2×) using an air pocket to mix the matrix uniformly prior to sampling. The reaction mixture was analyzed by UPLC every 10 minutes.

[5] = DAB UV oxidation in in-line UV sterilizer, DDI water matrix; format: physicochemical
Description: A DAB sample in DDI water (68.1 mg/L) was treated with 3% hydrogen peroxide as a radical initiator (1 mL per approx. 225 mL DAB sample). […] Mixing aided the diffusion of the homolytic hydrogen peroxide UV oxidation product (HO·), which oxidized DAB.
The sample was irradiated by UV light (60 to 90 min).

## CC(C)(N=NC(C)(C)C(=N)N)C(=N)N [2,2′-azobis(2-methylpropionatnidine)]
[1]
  Effect on DAB decomposition with sonication: promoted DAB oxidation with sonication

## CC(C#N)(CCC(=O)O)N=NC(C)(C#N)CCC(=O)O (stereo not shown) [4,4′-azobis(4-cyanovaleric acid)]
[1]
  Effect on DAB decomposition with sonication: promoted DAB oxidation with sonication

## Nc1ccc(C(=O)c2ccccc2)cc1 [ABP, 4-amino-benzophenone]
[2]
  Impact on DAB UV oxidation: appeared to inhibit DAB oxidation
  % Loss DAB (30 min UV): 16%

## CC(C)(C#N)N=NC(C)(C)C#N [AIBN, azobisisobutyronitrile]
[1]
  Sonication time after which no DAB monomer was detectable: 25 min
[2]
  Impact on DAB UV oxidation: minimal impact on DAB UV oxidation
  % Loss DAB (30 min UV): 64%

## N.N.O=S(=O)(O)OOS(=O)(=O)O [APS, ammonium persulfate]
[1]
  Sonication time after which no DAB monomer was detectable: ≤ 5 min
[2]
  % Loss DAB (30 min UV): 100%
[2]; after 2 minutes exposure to the initiator
  DAB loss: > 95%

## CCN(CC)c1ccc(C(=O)c2ccc(N(CC)CC)cc2)cc1 [BDABP, 4,4′-bisdiethylaminobenzophenone]
[2]
  Impact on DAB UV oxidation: decreased the amount of DAB monomer found in solution
  % Loss DAB (30 min UV): 68%

## O=C(OOC(=O)c1ccccc1)c1ccccc1 [Benzoyl Peroxide, benzoyl peroxide]
[1]
  Sonication time after which no DAB monomer was detectable: 5 min
[2]
  Impact on DAB UV oxidation: decreased the amount of DAB monomer found in solution
  % Loss DAB (30 min UV): 72%

## Nc1ccc(-c2ccc(N)c(N)c2)cc1N [DAB, 3,3′-diaminobenzidine]
[3]; 10 mm matrix layer thickness
  UV irradiation time to no DAB intermediates (dimers, trimers): 15 to 20 min
[3]; 20 mm matrix layer thickness
  UV irradiation time to no DAB intermediates (dimers, trimers): 25 min
[3]; 30 mm matrix layer thickness, intermediates still shown
  UV irradiation time to no DAB intermediates (dimers, trimers): > 30 min
[3]; Reaction Buffer only matrix, 10 mm layer
  UV irradiation time to no DAB intermediates: 4 to 6 min
[3]; all aqueous layer thicknesses (10, 20, 30 mm), approx. 20% (v/v) LCS, no mixing
  UV radiation time after which no DAB monomer was detected: 2 to 4 min
[3]; all sample matrices (with or without LCS, emulsions), 10 mm layer
  UV radiation time after which no DAB monomer was detected: 2 to 4 min
[3]; clear LCS layered matrix, 10 mm layer
  UV irradiation time to no DAB intermediates: 10 to 15 min
[3]; other LCS emulsion samples, 10 mm layer
  UV irradiation time to no DAB intermediates: 20 to 25 min
[4]; BenchMark IHC waste, 10 W, 3 mL 3% peroxide per 250 mL
  Time to DAB monomer at or below HPLC LOD: ≤ 30 min
[4]; BenchMark IHC waste, 18 W, 3% hydrogen peroxide 20 mL per approx. 1.5 L
  UV irradiation time for DAB monomer to decrease below LOD: Approximately 90 minutes
[4]; BenchMark IHC waste, 3% hydrogen peroxide 20 mL per approx. 1.5 L
  UV irradiation time for DAB monomer to decrease to LOD: 30 min
[4]; BenchMark waste, 10 W, 60 minutes UV irradiation, without hydrogen peroxide
  DAB monomer still detectable: about 21%
[4]; both BenchMark IHC waste matrices (with and without LCS emulsion), hydrogen peroxide
  UV irradiation time for DAB monomer to decrease to LOD: 30 to 40 min
[5]; 10 W in-line UV sterilizer, 15 minutes of static UV irradiation without any mixing
  DAB monomer detected: Approximately 34%
[5]; 10 W, 60 minutes UV irradiation, absence of hydrogen peroxide
  DAB monomer still detectable: Approximately 10%
[5]; 10 W, presence of hydrogen peroxide (1 mL 3% per approx. 225 mL)
  UV irradiation time after which no DAB monomer was detected: 50 min
[5]; 55 W UV in-line sterilizer, RP UPLC, data not shown
  UV irradiation time after which DAB monomer was not detectable: 20 to 30 min
[5]; samples that received only 2 minutes UV irradiation
  DAB monomer by UPLC after storage overnight at 10° C.: not detected; also recorded: No DAB monomer was detected
[2]; BenchMark Reaction Buffer, 60 minutes UV irradiation, absence of hydrogen peroxide
  DAB monomer still detectable: Approximately 38%
[2]; BenchMark Reaction Buffer, 60 minutes of UV irradiation, presence of hydrogen peroxide
  DAB monomer detected: Less than 5%

## OO [Hydrogen Peroxide, hydrogen peroxide]
other
  Solubility in water: completely soluble in water
[1]
  Effect on DAB decomposition with sonication: failed to show any substantial DAB decomposition
[2]
  % Loss DAB (30 min UV): 96%

## CC(=O)OO [Peracetic Acid, peracetic acid]
other
  Solubility in water: completely soluble in water
[2]
  Impact on DAB UV oxidation: decreased the amount of DAB monomer found in solution
  % Loss DAB (30 min UV): 73%

## CC1(C)CCCC(C)(C)N1[O] [TEMPO]
[2]
  Impact on DAB UV oxidation: appeared to inhibit DAB oxidation
  % Loss DAB (30 min UV): 45%
